Experimental data published in US10925971B2, “Methods of treating PRLR positive breast cancer” (Regeneron Pharmaceuticals, Inc., priority 2016, dated 2021).
Like-named read-outs stand apart in the source and are kept apart here. Square brackets hold non-standard residues; d marks the D form. Peptide text beside a SMILES is read from it. * marks the point of attachment. Dolaproine = CO[C@@H]([C@@H]1CCCN1)[C@@H](C)C(=O)O; Dil = CC[C@H](C)[C@H](NC)[C@@H](CC(=O)O)OC; X1 = C[C@@H](N*)[C@@H](O)c1ccccc1; NMeV = CN[C@H](C(=O)O)C(C)C

B1: H1H6765P-DM1: anti-PRLR antibody H1H6765P conjugated to DM1 through an SMCC linker (conjugate)
VH: EVQLVESGGGVVRPGGSLRLSCVGSGFSFDDHGMNWVRQGPGKGLEWVSGFNWNGGSTNYAESVKGRFTISRDNARNSLFLQMNSLRAEDTALYYCVRGRSGWFNDAFDVWGPGTMVTVSS
VL: EIVLTQSPGTLSLSPGERATLSCRASQTINSNYLAWYRQKPGQTPRLLIYGTSSRATGIPDRFSGSGSGTDFSLTISRLEPEDFAVFYCQQYAGLPTFGPGTKVDIK

Assays:
[1] = test system: HEK293 (293) cells; assay: In vitro cell viability (cell kill) assay, CCK8; type: cell-based, human; conditions: 293; Table 19
Procedure, shortened: (§1)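 hPRLR stable lines; anti-PRLR-DM1 ADC (SMCC) or DM1-SMe, 10-pt 500 nM–5 pM, 3 d. CCK8 OD450 final 1-3 h (293/PC3); Hoechst nuclear count imaging (MCF7).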

[2] = test system: PC3 cells; assay: In vitro cell viability (cell kill) assay, CCK8; type: cell-based, human
Procedure, shortened: as §1

[3] = test system: PC3/hPRLR cells; assay: In vitro cell viability (cell kill) assay, CCK8; type: cell-based, human; conditions: Table 18
Procedure, shortened: as §1

[4] = test system: MCF7 (MCF7/ATCC) cells; assay: In vitro cell viability (cell kill) assay, nuclear counts; type: cell-based, human; conditions: MCF7/ATCC
Source text: (§2) PRLR-overexpressing cells, including HEK293, PC3, MCF7 and NCI-N87, were generated to assess the ability of anti-PRLR conjugated antibodies to reduce cell viability. For comparative purposes, PC3 and T47D cells with overexpressed ErbB2 were also generated, as well as an MCF7 cell line over-expressing both hPRLR and hErbB2. Briefly, Lipofectamine® 2000-mediated transfection methodology was utilized to generate HEK293 cells expressing human PRLR (HEK293/hPRLR) or human ErbB2 (HEK293/hErbB2). Lipofectamine LTX with Plus Reagent was used to generate PC3 cells expressing human PRLR (PC3/hPRLR) or human ErbB2 (PC3/hErbB2). Lentiviral-mediated transduction was utilized to generate MCF7 cells expressing human PRLR (MCF7/hPRLR), NCI-N87 cells expressing human PRLR (NCI-N87/hPRLR), T47D cells over-expressing human ErbB2 (T47D/hErbB2), and MCF7 cells expressing both human PRLR and human ErbB2 (MCF7/hPRLR/hErbB2). All lines were selected for at least two weeks in complete growth media plus appropriate selection reagents. Stably expressing populations were enriched for PRLR expression via FACS using the anti PRLR antibody Control I.
(§3) Next, the ability of anti-PRLR-DM1 antibody-drug conjugates (i.e., anti-PRLR antibodies conjugated to DM1 via a non-cleavable linker [SMCC]) to reduce cell viability was determined using in vitro cell based assays. Cells were seeded in PDL-coated 96 well plates at 1500 to 10000 cells per well in complete growth media and allowed to grow overnight. For cell viability curves, ADCs or free DM1 (as the methyl disulfide derivative DM1-SMe) were added to the cells at final concentrations ranging from 500 nM to 5 pM and incubated for 3 days. The 293, PC3 and T47D cells were incubated with CCK8 (Dojindo, Rockville, Md.) for the final 1-3 hours and the absorbance at 450 nm (OD450) was determined on a Flexstation3 (Molecular Devices, Sunnyvale, Calif.). MCF7 cells were treated with Hoechst 33342 nuclear stain while being fixed with 4% formaldehyde. Images were acquired on the ImageXpress micro XL (Molecular Devices, Sunnyvale, Calif.) and nuclear counts were determined via Columbus image analysis software (Perkin Elmer, Shelton, Conn.). Background OD450 values (PC3, 293, and T47D) or nuclear counts (MCF7) from digitonin (40 nM) treated cells was subtracted from all wells and viability was expressed as a percentage of the untreated controls. IC50 values were determined from a four-parameter logistic equation over a 10-point response curve (GraphPad Prism).

[5] = test system: MCF7/hPRLR (MCF7/PRLR) cells; assay: as above; type: cell-based, human
Source text: as §2, §3

[6] = test system: T47D cells; assay: In vitro cell viability (cell kill) assay, CCK8; type: cell-based, human; conditions: T47D, Table 19; for IC50: read-out: IC50
Description: as §3

[7] = test system: MCF7/PRLR tumors; assay: MCF7/PRLR breast cancer xenograft, tumor size and tumor growth inhibition; type: in vivo, NCr nude mice; conditions: NCr Nude mice
Source text: (§4) Briefly, 20×10^6 MCF7/PRLR cells (ATCC HTB-22 transfected with full length hPRLR as previously described) were implanted subcutaneously into the left mammary fat pad of female NCr nude mice. In other studies, 10×10^6 PC3/PRLR (ATCC CRL-1435 transfected with full length hPRLR as previously described) were implanted subcutaneously into the left flank of male SCID mice. Additionally, 10×10^6 parental T47D (ATCC HTB-133) or 7.5×10^10 T47D #11 cells (ATCC HTB-133 serially passaged in vivo as described below) were subcutaneously implanted into the left flank of female CB17 SCID mice. All mice were obtained from Taconic (Hudson, N.Y.). Each bolus of cells was supplemented with a 90-day estrogen release pellet (1.7 mg/pellet; Innovative Research America, Sarasota Fla.). […] Control reagents included PBS vehicle, free methyl-disulfide DM1 (DM1-SMe) and isotype Control 1-DM1.
(§5) In multi-dose studies, mice were dosed once a week for a total of three weeks with tumor volumes and body weights being monitored twice weekly throughout the study. Test ADCs were dosed at 5 and/or 15 mg/kg in the multi-dose studies. In single-dose studies, mice received a single dose of test ADC, and tumor volumes and body weights were monitored twice weekly throughout the study. Test ADCs were dosed at 1, 2.5, 5, and 15 mg/kg in the single-dose studies. Average tumor size as well as tumor growth inhibition relative to the vehicle treated group were calculated for each group. Tumors were measured with calipers twice a week until the average size of the vehicle group reached 1000 mm^3. Tumor size was calculated using the formula (length×width^2)/2. Tumor growth inhibition was calculated according to the following formula: (1−((Tfinal−Tinitial)/(Cfinal−Cinitial)))*100, where T (treated group) and C (control group) represent the mean tumor mass on the day the vehicle group reached 1000 mm^3. […] Results are summarized in Tables 21-25 (multi-dose) and Table 26 (single dose). (NT=not tested in the particular experiment shown).

[8] = test system: PC3/PRLR tumors; assay: PC3/PRLR xenograft, tumor size and tumor growth inhibition; type: in vivo, SCID mice; conditions: SCID mice
Source text: as §4, §5

[9] = test system: T47D#11 tumors; type: in vivo, CB17 SCID mice
Source text: as §4, §5

[10] = test system: TM00107 PDX tumors; assay: TM00107 patient derived xenograft (PDX) breast cancer model, tumor volume; type: in vivo, NOD SCID gamma (NSG) mice; conditions: intravenous every 4 days, 4 doses
Description: Efficacy of H1H6958N2-DM1 was also assessed in a patient derived xenograft (PDX) model of breast cancer that may better represent the response in patients. NOD SCID gamma (NSG) mice bearing tumor fragments of the TM00107 PDX breast cancer tumor were sourced from The Jackson Laboratories. The TM00107 PDX model was derived from an ER+/−/PR−/HER2− metastatic breast adenocarcinoma. PRLR expression was confirmed by microarray analysis and immunohistochemistry on tumor sample slides provided by The Jackson Laboratory (data not shown). When tumors were an average volume of ˜400-600 mm^3 (21 days post implantation), mice were randomized into treatment groups (n=7 mice/group) and were administered H1H6958N2-DM1, control ADC, or vehicle control by intravenous injection once weekly for a total of 4 weeks. A separate treatment group was administered paclitaxel by intravenous injection every 4 days for a total of 4 doses.

[11] = test system: PRLR expressing cells; assay: In vitro cell viability (cell kill) assay, several cell backgrounds; type: cell-based, human; conditions: PC3/hPRLR and MCF7/hPRLR cell lines
Source text: as §2, §3

[12] = MCF7/PRLR tumors TRIAL #1, multi-dose 0.2 mg/kg, Day 52
[13] = MCF7/PRLR tumors TRIAL #2, multi-dose 0.2 mg/kg, Day 63
[14] = PC3/PRLR tumors TRIAL #1, multi-dose 0.2 mg/kg, Day 63
[15] = PC3/PRLR tumors TRIAL #2, multi-dose 0.2 mg/kg, Day 55
[16] = MCF7/PRLR tumors TRIAL #2, multi-dose 15 mg/kg, Day 63
[17] = PC3/PRLR tumors TRIAL #2, multi-dose 15 mg/kg, Day 55
[18] = T47D#11 tumors, SCID mice, multi-dose 15 mg/kg, Day 66

Molecule | % Kill [1] [%] | IC50 [1] [nM] | % Kill ([2]; Table 18) [%] | IC50 ([2]; Table 18) [nM] | % Kill [3] [%] | IC50 [3] [nM] | % Kill ([4]; Table 18) [%] | IC50 ([4]; Table 18) [nM] | % Kill ([4]; Table 20) [%] | IC50 ([4]; Table 20) [nM] | % Kill ([5]; Table 18) [%] | IC50 ([5]; Table 18) [nM] | % Kill ([5]; Table 20) [%] | IC50 ([5]; Table 20) [nM] | % Kill [6] [%] | IC50 [6] [nM] | further results
COc1cc2cc(c1Cl)N(C)C(=O)C[C@H](OC(=O)[C@H](C)N(C)C(=O)CCSSC)[C@]1(C)O[C@H]1[C@H](C)[C@@H]1C[C@@](O)(NC(=O)O1)[C@H](OC)/C=C/C=C(\C)C2 [DM1-SMe, reference compound] | 95 | 1.2 | 90 | 0.5 | 70 | 1 | 80 | 3 | 80 | 1.3 | 86 | 1.9 | 80 | 0.8 | 100 | 1.5 | Average Tumor Growth Inhibition (%) [7, 12]: 57%; Final Tumor size mm^3 (mean ± SEM) [7, 12]: 625 ± 141 mm^3; Average Tumor Growth Inhibition (%) [7, 13]: −33%; Final Tumor size mm^3 (mean ± SEM) [7, 13]: 1080 ± 451 mm^3; Average Tumor Growth Inhibition (%) [8, 14]: −5%; Final Tumor size mm^3 (mean ± SEM) [8, 14]: 1361 ± 120 mm^3; Average Tumor Growth Inhibition (%) [8, 15]: 7%; Final Tumor size mm^3 (mean ± SEM) [8, 15]: 1147 ± 59 mm^3; Average Tumor Growth Inhibition (%) ([9]; mouse, in vivo, 0.2 mg/kg): −19%; Final Tumor size mm^3 (mean ± SEM) ([9]; mouse, in vivo, 0.2 mg/kg): 1433 ± 23 mm^3
CC[C@H](C)[C@@H]([C@@H](CC(=O)N1CCC[C@H]1[C@H](OC)[C@@H](C)C(=O)N[C@H](C)[C@@H](O)c1ccccc1)OC)N(C)C(=O)[C@@H](NC(=O)[C@@H](NC)C(C)C)C(C)C [Free MMAE] (H-[NMeV]V[Dil][Dolaproine]-X1) | 100 | 0.9 | 90 | 1.4 | 77 | 1 | 83 | 2.4 | 80 | 2.4 | 95 | 1.5 | 95 | 1.5 | 100 | 1 | –
CC(=O)O[C@H]1C(=O)[C@@]2(C)[C@H]([C@H](OC(=O)c3ccccc3)[C@]3(O)C[C@H](OC(=O)[C@H](O)[C@@H](NC(=O)c4ccccc4)c4ccccc4)C(C)=C1C3(C)C)[C@]1(OC(C)=O)CO[C@@H]1C[C@@H]2O [paclitaxel, reference compound] | – | – | – | – | – | – | – | – | – | – | – | – | – | – | – | – | tumor growth [10]: did not have an effect on tumor growth
B1 | – | – | – | – | – | – | – | – | – | – | – | – | – | – | – | – | cell killing, non-cleavable DM1 ADCs versus cleavable MMAE ADCs [11]: nearly equivalent cell killing; IC50 ([2]; Table 11, 3 days): 200 nM; Average Tumor Growth Inhibition (%) ([7]; MCF7/PRLR tumors TRIAL #2, multi-dose 5 mg/kg, Day 63): 122%; Average Tumor Growth Inhibition (%) [7, 16]: 136%; Final Tumor size mm^3 (mean ± SEM) [7, 16]: 0 ± 0 mm^3; Final Tumor size mm^3 (mean ± SEM) ([8]; PC3/PRLR tumors TRIAL #2, multi-dose 5 mg/kg, Day 55): 489 ± 70 mm^3; Average Tumor Growth Inhibition (%) [8, 17]: 98%; Final Tumor size mm^3 (mean ± SEM) [8, 17]: 181 ± 42 mm^3; Final Tumor size mm^3 (mean ± SEM) ([9]; T47D#11 tumors, SCID mice, multi-dose 5 mg/kg, Day 66): 183 ± 28 mm^3; Average Tumor Growth Inhibition (%) [9, 18]: 111%; Final Tumor size mm^3 (mean ± SEM) [9, 18]: 69 ± 12 mm^3; T47D #11 tumor growth ([9]; repeat dosing 5 and 15 mg/kg): potently inhibited tumor growth
